Some test systems named below: 786-0; HCT-116; HCT-15; HL-60; K562; MDA-MB-435; MDA-N; Malme-3M; NCI-H522; NCI/ADR-RES; OVCAR-3; OVCAR-8; RPMI-8226; SF-295; SN12C; SR; SW-620; T47D; TK-10; RXF 393.
Common to all, as to experiment: growth of human tumour cells (NCI), 48 h

Experimental findings from ChEMBL document CHEMBL1201862, “PubChem BioAssay data set” (2004) are described below.

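Protocol summary: plate cells (96-well), add compound at 5 concentrations, incubate 48 h, interpolate endpoints linearly. The concentration for 50% growth inhibition is given as GI50.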 Active and inactive are the calls of the source. No stated cut-off is given here; in the data, active = GI50 up to about 1.1 µM and inactive = higher.

For the molecule `O=C(CNC(c1ccccc1)(c1ccccc1)c1ccccc1)NC1CCCCC1NC(=O)CNC(c1ccccc1)(c1ccccc1)c1ccccc1` (configuration not stated), the GI50 in the assay with 786-0 was 85.7 µM (inactive); in the assay with HCT-116 it was > 100 µM (inactive); in the assay with HCT-15 it was above 100 µM; in the assay with HL-60, > 100 µM (inactive); in the assay with K562, > 100 µM (inactive); in the assay on MDA-MB-435, > 100 µM (inactive). Moreover, the GI50 in the assay with MDA-N, in the assay with Malme-3M, with NCI-H522, in the assay on NCI/ADR-RES, in the assay with OVCAR-3 and in the assay on OVCAR-8 was > 100 µM (inactive) in each case. Moreover, the GI50 with RPMI-8226, in the assay with SF-295, in the assay on SN12C, with SR, in the assay with SW-620 and in the assay with T47D was > 100 µM (inactive) in each case. Besides, in the assay on TK-10, the GI50 was > 100 µM (inactive).

On to `C#CCn1c2c(c3ccccc3c1=O)C(=O)c1ccccc1-2`, for which the GI50 is 14 µM (inactive) in the assay on 786-0; 19.6 µM (inactive) with HCT-116; 22.2 µM in the assay on HCT-15; 2.94 µM (inactive) in the assay with HL-60; 19 µM (inactive) in the assay with K562; 67.3 µM (inactive) with MDA-MB-435. Moreover, the GI50 with MDA-N was 37.7 µM (inactive); with Malme-3M, 25.5 µM (inactive); in the assay on NCI-H522, 10.7 µM (inactive); in the assay with NCI/ADR-RES, 21.5 µM (inactive); in the assay with OVCAR-3, 14.7 µM (inactive); in the assay on OVCAR-8 it was 19.6 µM (inactive). Moreover, the GI50 in the assay on RPMI-8226 was 13 µM (inactive); with SF-295, 20.2 µM (inactive); with SN12C, 11.4 µM (inactive); in the assay with SR it was 4.49 µM (inactive); in the assay with SW-620, 23.9 µM (inactive); in the assay on T47D, 15.8 µM (inactive). In addition, the GI50 with TK-10 is 19.5 µM (inactive).

`CSc1[nH]nc(N)c1C(=O)Nc1ccc(Cl)cc1`: the GI50 in the assay on 786-0 is 52.1 µM (inactive); in the assay with HCT-116, 23.6 µM (inactive); with HCT-15 it was 46.2 µM; in the assay on HL-60, 34.8 µM (inactive); in the assay with K562, 51.3 µM (inactive); with MDA-MB-435, > 100 µM (inactive). The GI50 is > 100 µM (inactive) with MDA-N; 63.7 µM (inactive) with Malme-3M; 27 µM (inactive) in the assay with NCI-H522; 35.2 µM (inactive) in the assay with NCI/ADR-RES; > 100 µM (inactive) with OVCAR-3; 40.9 µM (inactive) in the assay with OVCAR-8. Besides, the GI50 in the assay on RPMI-8226 is 37.7 µM (inactive); with RXF 393, 22.9 µM (inactive); in the assay on SN12C, > 100 µM (inactive); in the assay on SR, 35.3 µM (inactive); with SW-620, 57.3 µM (inactive); with T47D, 58.1 µM (inactive). For the same molecule, in the assay with TK-10, the GI50 was 47.2 µM (inactive).

For `CC(=O)Nn1cnc(C(=N)C#N)c1N`, the GI50 in the assay on 786-0 is > 100 µM (inactive); in the assay with HCT-116, > 100 µM (inactive); in the assay with HCT-15, above 100 µM; in the assay on HL-60, > 100 µM (inactive); in the assay with K562 it was > 100 µM (inactive); in the assay on MDA-MB-435, > 100 µM (inactive). In addition, the GI50 with MDA-N, in the assay on Malme-3M, in the assay with NCI-H522, in the assay with NCI/ADR-RES, in the assay with OVCAR-3 and with OVCAR-8 was > 100 µM (inactive) throughout. The GI50 with RPMI-8226, with SF-295, in the assay with SN12C, in the assay on SR, with SW-620 and with T47D was > 100 µM (inactive) in each case. Also, in the assay on TK-10, the GI50 was > 100 µM (inactive).

`CCO/N=C(/CC)c1ccc(Br)s1`: the GI50 is > 100 µM (inactive) in the assay with 786-0; > 100 µM (inactive) in the assay on HCT-116; above 100 µM in the assay with HCT-15; 33 µM (inactive) in the assay with HL-60; > 100 µM (inactive) in the assay with K562; > 100 µM (inactive) in the assay with MDA-MB-435. Also, the GI50 in the assay with MDA-N, in the assay with Malme-3M, with NCI-H522, in the assay on NCI/ADR-RES, with OVCAR-3 and in the assay on OVCAR-8 was > 100 µM (inactive) each time. The GI50 in the assay with RXF 393 is > 100 µM (inactive); in the assay on SF-295 it was > 100 µM (inactive); in the assay on SN12C, > 100 µM (inactive); with SR it was 52.2 µM (inactive); in the assay on SW-620, > 100 µM (inactive); in the assay with T47D it was > 100 µM (inactive). Moreover, the GI50 in the assay with TK-10 was > 100 µM (inactive).

Turning to `S=C1CC(c2ccccc2)Sc2cc(Cl)ccc2N1` (configuration not stated), the GI50 is 5.42 µM (inactive) in the assay on 786-0; 3.03 µM (inactive) with HCT-116; 1.32 µM in the assay on HCT-15; 0.726 µM (active) in the assay with HL-60; 0.64 µM (active) with K562; 0.723 µM (active) in the assay on MDA-MB-435. Besides, the GI50 is 0.661 µM (active) in the assay with MDA-N; 6.28 µM (inactive) in the assay on Malme-3M; 2.21 µM (inactive) with NCI-H522; 3.52 µM (inactive) in the assay with NCI/ADR-RES; 2.49 µM (inactive) in the assay on OVCAR-3; 13.2 µM (inactive) with OVCAR-8. The GI50 in the assay with RPMI-8226 was 43.5 µM (inactive); with RXF 393, 6.55 µM (inactive); in the assay with SF-295, 3.45 µM (inactive); in the assay with SN12C it was 8.77 µM (inactive); in the assay on SR, 3.44 µM (inactive); in the assay with T47D it was 21.6 µM (inactive). The GI50 with TK-10 is 16.2 µM (inactive).

With `CN(C)CCNC(=O)c1cc(-c2nccn2C)nc2ccccc12`, the GI50 in the assay with 786-0 is > 100 µM (inactive); in the assay on HCT-116 it was > 100 µM (inactive); with HCT-15, 66.1 µM; in the assay with HL-60, > 100 µM (inactive); with K562, > 100 µM (inactive); in the assay on MDA-MB-435, > 100 µM (inactive). Further, the GI50 in the assay with MDA-N, in the assay on Malme-3M, with NCI-H522, in the assay on NCI/ADR-RES, in the assay with OVCAR-8 and in the assay on RPMI-8226 was > 100 µM (inactive) each time. Also, the GI50 is 45.4 µM (inactive) with RXF 393; > 100 µM (inactive) in the assay with SN12C; > 100 µM (inactive) in the assay with SR; > 100 µM (inactive) in the assay on SW-620; > 100 µM (inactive) in the assay with T47D; > 100 µM (inactive) with TK-10.

As for `Cc1cc2c(c(/C=N/c3ccc([N+](=O)[O-])cc3)c1)OC1(C=C2)Oc2ccccc2C(=O)N1C` (configuration not stated), the GI50 is 22.6 µM (inactive) in the assay with 786-0; 14.6 µM (inactive) in the assay with HCT-116; 17.9 µM in the assay on HCT-15; 23.2 µM (inactive) in the assay with HL-60; 19.2 µM (inactive) in the assay with K562; 31.2 µM (inactive) with MDA-MB-435. The GI50 is 24.8 µM (inactive) in the assay with MDA-N; 21.5 µM (inactive) with NCI-H522; 18.9 µM (inactive) in the assay on NCI/ADR-RES; 29.4 µM (inactive) in the assay with OVCAR-3; 16.1 µM (inactive) in the assay with OVCAR-8; 19.3 µM (inactive) in the assay on RPMI-8226. The GI50 with RXF 393 was 18.5 µM (inactive); with SF-295 it was 24.4 µM (inactive); in the assay on SN12C, 20.5 µM (inactive); in the assay with SR it was 12.3 µM (inactive); in the assay with SW-620 it was 29.1 µM (inactive); with T47D, 7.89 µM (inactive). Besides, the GI50 in the assay on TK-10 is 24.5 µM (inactive).

Take `CCS(=O)(=O)CCn1cnc2c1c(=O)n(C)c(=O)n2C`: the GI50 in the assay with 786-0 is > 100 µM (inactive); in the assay with HCT-116, > 100 µM (inactive); in the assay on HCT-15, above 100 µM; in the assay on HL-60 it was > 100 µM (inactive); in the assay with K562, > 100 µM (inactive); in the assay with MDA-MB-435, > 100 µM (inactive). The GI50 in the assay with MDA-N, in the assay with NCI-H522, in the assay with NCI/ADR-RES, with OVCAR-3, in the assay on OVCAR-8 and in the assay with RXF 393 was > 100 µM (inactive) in each case. The GI50 in the assay with SF-295 was > 100 µM (inactive); with SN12C, > 100 µM (inactive); in the assay on SR, 0.0318 µM (active); in the assay with SW-620, > 100 µM (inactive); with T47D, > 100 µM (inactive); in the assay on TK-10, > 100 µM (inactive).

For the molecule `COC(=O)C(C)(Cc1ccc2c(c1)nnn2C(C)=O)NC(C)=O` (configuration not stated), the GI50 in the assay on 786-0 was > 100 µM (inactive); with HCT-116, > 100 µM (inactive); in the assay with HCT-15, above 100 µM; with HL-60 it was > 100 µM (inactive); in the assay with K562, > 100 µM (inactive); with MDA-MB-435 it was > 100 µM (inactive). The GI50 with MDA-N, in the assay with Malme-3M, in the assay on NCI-H522, with NCI/ADR-RES, in the assay with OVCAR-3 and in the assay with OVCAR-8 was > 100 µM (inactive) in each case. Moreover, the GI50 with RPMI-8226, with RXF 393, in the assay with SF-295, with SR, with SW-620 and in the assay with T47D was > 100 µM (inactive) each time. Besides, the GI50 in the assay with TK-10 was > 100 µM (inactive).

Take `CC1(C)N/C(=C\[N+](=O)[O-])C(C)(C)N1O`: the GI50 with 786-0 was > 10 µM (inactive); with HCT-116, > 10 µM (inactive); in the assay with HCT-15, above 10 µM; in the assay on HL-60 it was > 10 µM (inactive); with MDA-MB-435 it was > 10 µM (inactive); in the assay on MDA-N, > 10 µM (inactive). Also, the GI50 in the assay on Malme-3M, in the assay with NCI-H522, in the assay on NCI/ADR-RES, in the assay on OVCAR-3, with OVCAR-8 and in the assay with RPMI-8226 was > 10 µM (inactive) each time. Also, the GI50 in the assay with RXF 393, in the assay on SF-295, with SN12C, in the assay with SR, in the assay with SW-620 and in the assay on T47D was > 10 µM (inactive) each time. In addition, the GI50 in the assay with TK-10 is > 10 µM (inactive).
